Experiments:
Format in all cases: biochemical
[1] = target: T1, thrombin (Homo sapiens, UniProt P00734); assay: Inhibition of thrombin; conditions: 25 μM Bz-Phe-Val-Arg-AMC, pH 7.5, read-out: Thrombin % I @ 10 uM
T1 construct: purchased Sigma Chem. Co. T-7009
Protocol: (§1) To evaluate inhibitory activity, stock solutions (40 times concentrated) of each compound to be tested were prepared in 100% anhydrous DMSO and 5 μL of each inhibitor preparation were aliquoted into each of three wells of a 96-well plate. Calpain I, prepared by a modification of the method of W. J. Lee et al. (Biochem. Internatl. 22: 163-171 (1990)), was diluted into assay buffer (i.e., 50 mM Tris, 50 mM NaCl, 1 mM EDTA, 1 mM EGTA, and 5 mM-mercaptoethanol, pH 7.5 including 0.2 mM Succ-Leu-Tyr-MNA) and 175 μL aliquoted into the same wells containing the independent inhibitor stocks as well as to positive control wells containing 5 μL DMSO, but no compound. To start the reaction, 20 μL of 50 mM CaCl2 in assay buffer was added to all wells of the plate, excepting three, which were used as background signal baseline controls. Substrate hydrolysis was monitored every 5 minutes for a total of 30 minutes using a Fluoroskan II fluorescence plate reader. Substrate hydrolysis in the absence of inhibitor was linear for up to 15 minutes.
(§2) Inhibition of calpain I activity was calculated as the percent decrease in the rate of substrate (S) hydrolysis in the presence of inhibitor (I) relative to the rate in its absence (o). Comparison between the inhibited and control rates was made within the linear range for substrate hydrolysis. For screening, compounds were tested at 10 μM. Compounds having 50% inhibition at 10 μM were considered active. The IC50s of inhibitors (concentration yielding 50% inhibition) were determined from the percent decrease in the rates of substrate hydrolysis in the presence of five to seven different concentrations of the test compound. The results were plotted as % inhibition versus log inhibitor concentration and the IC50 was calculated from linear regression of the data. Apparent second order rate constants were determined from analysis of reaction progress curves under pseudo-first order conditions. Each determination represents the means of three or more independent single cuvette analyses continually monitored via a Perkin-Elmer LS50B spectrofluorimeter. The rate of inhibition of hydrolysis was obtained by fitting the curve to the exponential equation (1):
(§3) Additionally, because α-chymotrypsin is not a calcium sensitive enzyme and is constitutively active, following addition of inhibitor stocks to the 96 well plates, 100 μl of a 2-fold concentrated stock of enzyme in dilution buffer was first added and the reaction started by addition of 100 μl of a 2-fold concentrated stock of substrate in assay buffer. Substrate hydrolysis was monitored every 5 minutes up to 30 minutes using a Fluoroskan II ([…]).
Inhibition of thrombin (Sigma Chem. Co. Cat. #T-7009) was evaluated as described for chymotrypsin except that the assay was performed in 50 mM Tris, 10 mM CaCl2, pH 7.5 and the substrate was 25 μM Bz-Phe-Val-Arg-AMC (Bachem cat#I-1080).

[2] = target: T2, α-chymotrypsin (Bos taurus, UniProt P00766); assay: Inhibition of α-chymotrypsin; conditions: pH 7.5, 10 μM, 0.03 mM Succ-Ala-Ala-Pro-Phe-AMC, read-out: Chymotrypsin % I @
T2 construct: purchased Sigma Chem. Co. C-3142
Protocol: as §1, §2, §3

[3] = target: T3, Calpain I (Homo sapiens, UniProt P07384); assay: Rate of inactivation of calpain I (second order rate constant); conditions: pH 7.5, pseudo-first order conditions, read-out: Calpain Inactivation Rates
T3 construct: made in house
T3 sequence (P07384 1-714): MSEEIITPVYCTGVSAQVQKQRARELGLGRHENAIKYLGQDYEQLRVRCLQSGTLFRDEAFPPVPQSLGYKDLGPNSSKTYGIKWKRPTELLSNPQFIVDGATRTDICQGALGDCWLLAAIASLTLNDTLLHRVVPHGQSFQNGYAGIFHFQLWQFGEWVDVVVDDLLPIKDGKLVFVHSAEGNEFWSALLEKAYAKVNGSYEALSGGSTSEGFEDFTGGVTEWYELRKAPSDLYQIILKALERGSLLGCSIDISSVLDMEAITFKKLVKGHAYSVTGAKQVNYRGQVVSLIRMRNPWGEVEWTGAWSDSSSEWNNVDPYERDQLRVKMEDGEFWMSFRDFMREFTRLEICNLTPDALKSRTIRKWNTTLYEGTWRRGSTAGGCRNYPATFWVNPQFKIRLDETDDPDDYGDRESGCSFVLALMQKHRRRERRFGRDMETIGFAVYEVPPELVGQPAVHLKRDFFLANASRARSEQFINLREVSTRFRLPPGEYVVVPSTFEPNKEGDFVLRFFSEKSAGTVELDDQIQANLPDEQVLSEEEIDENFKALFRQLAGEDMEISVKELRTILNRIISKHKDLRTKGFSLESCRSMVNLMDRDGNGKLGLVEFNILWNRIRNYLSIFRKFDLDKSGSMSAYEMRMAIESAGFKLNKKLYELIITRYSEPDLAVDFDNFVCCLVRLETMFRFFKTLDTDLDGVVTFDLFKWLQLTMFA
T3 sequence (P04632 1-268 partner): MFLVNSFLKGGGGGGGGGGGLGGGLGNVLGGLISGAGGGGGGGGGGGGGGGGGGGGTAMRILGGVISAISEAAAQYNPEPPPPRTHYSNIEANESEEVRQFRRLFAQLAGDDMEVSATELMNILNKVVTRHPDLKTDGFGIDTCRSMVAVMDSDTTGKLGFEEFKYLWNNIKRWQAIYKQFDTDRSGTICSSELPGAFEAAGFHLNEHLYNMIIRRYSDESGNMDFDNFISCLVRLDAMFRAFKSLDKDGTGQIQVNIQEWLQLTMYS
Protocol: as §1
as §2, with “The IC50s of inhibitors (concentration yielding 50% inhibition) were determined from the percent decrease in the rates of substrate hydrolysis in the presence of five to seven different concentrations of the test compound.” left out, “The rate of inhibition of hydrolysis was obtained by fitting the curve to the exponential equation (1):” left out
where y is the product formed at time t. […] The apparent second order rate constant kapp was determined as Kobs /[I]. […]

Compound	inhibition at 10 µM [1]	inhibition at 10 µM [2]	kinact/KI [3]
CC(C)CC(CC(=O)C1c2ccccc2Oc2ccccc21)C(=O)NC(Cc1ccccc1)C(=O)CF (racemic) [Compound 14b, Xanthene-COCH2 CH(iBu)CO-Phe-CH2 F]	9%	98%	75600 M⁻¹ s⁻¹
CC(C)CC(CC(=O)[C@H](CC(C)C)NC(=O)OCc1ccccc1)C(=O)NC(Cc1ccccc1)C(=O)CF (stereo partly drawn) [Compound 14c, Z-Leu-CH2 CH(iBu)CO-Phe-CH2 F]	0%	82%	16800 M⁻¹ s⁻¹
CCC(C(=O)CC(CC(C)C)C(=O)NC(Cc1ccccc1)C(=O)CF)c1ccccc1 (stereo not drawn) [Compound 14a, CH3 CH2 CH(Ph)COCH2 CH(iBu)CO-Phe-CH2 F]	0%	33%	5800 M⁻¹ s⁻¹

Source: US6329377A, “Ketomethylene group-containing cysteine and serine protease inhibitors” (Cephalon, Inc., priority 2000, dated 2001)
